Test [1] relates to mip1^G651S and mip1^A692T yeast mutants, Δsml1. Kind of test: Small colony frequency in mip1 strains with or without SML1 deletion (mtDNA stability). The test is classed as cell-based, Saccharomyces cerevisiae. Particulars: 32 μM. As for the experimental part: Deletion of the SML1 gene encoding the inhibitor of RNRI (ribonucleotide diphosphate reductase, enzyme limiting the synthesis pathway of dNTPs) is known to be a genetic suppressor of the instability of the mtDNA caused by mutations in the MIP1 gene (Wang P J, Chabes A, Casagrande R, Tian X C, Thelander L and Huffaker T C. (1997) Rnr4p a novel ribonucleotide reductase small-subunit protein. Mol Cell Biol, 17, 6114-6121).
The frequency of the small colonies was determined for the mip1^G651S and mip1^A692T strains, whether deleted or not from the SML1 gene and in the presence of 32 μM clofilium tosylate or DMSO.
From pre-cultures in selective medium (SC-TRP, 2% ethanol (v/v)) of mutated mip1 strains, 2.10^5 cells/mL were seeded in 2 mL of rich YPD medium in the presence of 32 μM clofilium tosylate or DMSO, then incubated at 28° C. for 24 hours. The cells were then diluted to have about 200 to 250 cells per dish and were spread on differential synthetic medium (SC-TRP, 0.3% glucose, 2% ethanol). The number of small colonies was calculated after 5 days of incubation at 28° C.

The test system of test [2] is homozygous TB2143 nematodes (polg-1(ok1548Δ/Δ)). Kind of test: Amount of mtDNA of homozygous nematodes depleted of mtDNA. The test is classed as in vivo, Caenorhabditis elegans. On the procedure:
Ten homozygous or wild-type TB2143 larvae (polg-1(ok1548Δ/Δ)) at stage L4 were deposited on each NGM dish containing either DMSO or 50 μM clofilium tosylate (three dishes for each treatment group). They were incubated at 20° C. until the 6th day of adulthood. Extraction of the total nematode DNAs was performed with the Nucleospin Kit Tissue kit (Macherey Nagel). The quantifications of mtDNA and nuclear DNA were performed as described in Addo et al., 2010 (Addo, M. G., Cossard, R., Pichard, D., Obiri-Danso, K., Rötig, A. and Delahodde, A. (2010) Caenorhabditis elegans, a pluricellular model organism to screen new genes involved in mitochondrial genome maintenance. BBA-Mol. Basis Dis., 1802, 765-773).

The test system of test [3] is fibroblasts from a patient with a mutation on each allele of the POLG gene. Kind of test: Amount of mtDNA (qPCR) in patient fibroblasts, quiescent conditions. The class given is cell-based, human. On the procedure:
Skin fibroblasts from the control and from the patient were cultured to 100% confluence in DMEM at 37° C. under 5% CO2. At 100% confluence, the fibroblasts were washed with PBS and the quiescent medium was added (4.5 g/L D-glucose, 110 mg/L sodium pyruvate, 0.1% foetal bovine serum, 1% penicillin/streptomycin from the stock solution containing 10,000 I.U. penicillin and 10,000 μg/mL streptomycin). After four days in quiescent medium, […] or DMSO (0.1%) was added to the culture medium. The treatment was carried out for 18 days, changing the culture medium with or without clofilium tosylate every three days. […] The mtDNA and nuclear DNA were quantified by qPCR (Sarzi, E., Bourdon, A., Chrétien, D., Zarhrate, M., Corcos, J., Slama, A., Cormier-Daire, V., De Lonlay, P., Munnich, A. and Rötig, A. (2007) Mitochondrial DNA Depletion is a Prevalent Cause of Multiple Respiratory Chain Deficiency in Childhood. J Pediatr, 105, 531-534).
Skin fibroblasts from the patient were cultured to 100% confluence in DMEM at 37° C. under 5% CO2. […] The mtDNA and nuclear DNA were quantified by qPCR (Sarzi, E., Bourdon, A., Chrétien, D., Zarhrate, M., Corcos, J., Slama, A., Cormier-Daire, V., De Lonlay, P., Munnich, A. and Rötig, A. (2007) Mitochondrial DNA Depletion is a Prevalent Cause of Multiple Respiratory Chain Deficiency in Childhood. J Pediatr, 105, 531-534).

`CCCCCCC[N+](CC)(CC)CCCCc1ccc(Cl)cc1.Cc1ccc(S(=O)(=O)[O-])cc1` [clofilium tosylate]: the “stability of the mtDNA, clofilium tosylate together with availability of dNTPs (SML1 deletion)” value in test [1] is “additive effect”. Moreover, the “amount of mtDNA of homozygous TB2143 nematodes” value in test [2] (50 μM vs DMSO) is “Clofilium tosylate increased the amount of mtDNA of homozygous TB2143 nematodes (polg-1(ok1548Δ/Δ)) depleted of mtDNA”. This compound yielded a mtDNA/nuDNA in test [2] (polg-1(ok1548Δ/Δ), 50 μM, 6th day of adulthood) of 69.2. In addition, the “amount of mtDNA, quiescent conditions” value in test [3] (Example 14, 18-day treatment) is on record as “increased”. Besides, in test [3] (Example 25, concentrations of 0.5 μM and 1 μM, 18-day treatment), the “amount of mtDNA, quiescent conditions, dose-response” value is given as “increased”.

Values taken from patent publication US10639287B2, “Compounds for the treatment of mitochondrial diseases” (UNIVERSITE PARIS-SUD, priority 2014, dated 2020).
